The text below walks through data of ChEMBL document CHEMBL3286142, “Synthesis and antihyperglycemic evaluation of new 2-hydrazolyl-4-thiazolidinone-5-carboxylic acids having pyrazolyl pharmacophores” (2014).

This experiment has as its system Rattus norvegicus. The experiment can be described thus: Antihyperglycemic activity in sucrose loaded albino Sprague-Dawley rat model assessed as improvement of glucose tolerance by measuring reduction in glucose AUC at 100 mg/kg, po administered 30 mins prior to sucrose load measured for 2 hrs by oral sucrose tolerance test. In kind it is functional. Further details: scale not given: the % may be the effect or the level left.
As to `Cc1ccc(-c2nn(-c3ccccc3)cc2/C=N\N=C2\NC(=O)C(CC(=O)O)S2)cc1` (configuration not stated), the Activity came out at 6.09%.

Turning to `COc1ccc(-c2nn(-c3ccccc3)cc2/C=N\N=C2\NC(=O)C(CC(=O)O)S2)cc1` (configuration not stated), the Activity was 6.97%.

As for `O=C(O)CC1S/C(=N\N=C/c2cn(-c3ccccc3)nc2-c2ccc(F)cc2)NC1=O` (configuration not stated), the Activity is on record as 7.64%.

As to `O=C(O)CC1S/C(=N\N=C/c2cn(-c3ccccc3)nc2-c2ccc(Br)cc2)NC1=O` (configuration not stated), the Activity turned out to be 5.69%.

In the case of `O=C(O)CC1S/C(=N\N=C/c2cn(-c3ccccc3)nc2-c2ccc([N+](=O)[O-])cc2)NC1=O` (configuration not stated), the Activity was 7.57%.

Take `O=C(O)CC1S/C(=N\N=C/c2cn(-c3ccccc3)nc2-c2ccc(O)cc2)NC1=O` (configuration not stated): the Activity is recorded as 7.97%.

As for `CN(C)C(=N)NC(=N)N` [METFORMIN], the Activity amounted to 14.1%.
